In ChEMBL document CHEMBL5226325, “Optimization of a Screening Hit toward M2912, an Oral Tankyrase Inhibitor with Antitumor Activity in Colorectal Cancer Models” (J Med Chem, 2021):
The source made the active and inactive calls. The calls are words filed in the database; no cut-off is given here.

Columns and labels:
[1] = molecular target: Protein mono-ADP-ribosyltransferase PARP3 (Homo sapiens, UniProt Q9Y6F1); assay: Inhibition of N-terminal GST-fused human recombinant PARP3 (2 to 540 residues) expressed in Sf9 insect cells by chemiluminescence assay
[2] = Half life in human; format: ADME
[3] = Oral bioavailability in rat; format: ADME, organism-based; conditions: in vivo
[4] = molecular target: Poly [ADP-ribose] polymerase 2 (Homo sapiens, UniProt Q9UGN5); assay: Inhibition of N-terminal GST-tagged human recombinant PARP2 (2 to 583 residues) expressed in baculovirus infected Sf9 insect cells by chemiluminescence assay
[5] = Volume of distribution at steady state in mouse; format: ADME, organism-based; conditions: in vivo, read-out: Vdss
[6] = Unbound fraction in human plasma; format: ADME, cell-free
[7] = Volume of distribution at steady state in dog; format: ADME, Canis lupus familiaris; conditions: in vivo, read-out: Vdss
CYP450 = CYP450 (Homo sapiens, UniProt P04798+P05177+P05181+P08684+P10632+P10635+P11509+P11712+P13584+P20813+P20815+P20853+P24462+P24903+P33260+P33261+P51589+P78329+P98187+Q02928+Q08477+Q16678+Q16696+Q5TCH4+Q6VVX0+Q7Z449+Q8TAV3+Q96SQ9+Q9HB55); assay: Inhibition of CYP450 (unknown origin); format: ADME, protein assay
[8] = Toxicity in […] xenografted with human HT55 cells assessed as reduction in body weight at 20 mg/kg, po administered twice daily via gavage for 20 days and measured twice weekly; format: organism-based; conditions: in vivo, 480 h, time 20 day
[9] = In vivo inhibition of Wnt pathway in Hsd athymic nude mouse xenografted with human DLD1 cells assessed as increase in axin2 protein level in tumor at 10 to 30 mg/kg, po administered as single dose and measured after 18 hrs; format: functional, organism-based; conditions: DLD-1, dose 10-30 mg/kg
[10] = molecular target: Protein mono-ADP-ribosyltransferase PARP8 (Homo sapiens, UniProt Q8N3A8); assay: Inhibition of human PARP8 by chemiluminescence assay
SW-620 = assay: Cytotoxicity against human SW620 cells assessed as reduction in cell growth at 0.01 to 10 uM incubated for 14 days by resazurin dye based assay; format: functional; conditions: dose 0.01-10 µM, time 14.0 day
[11] = Half life in dog; format: ADME, Canis lupus familiaris; conditions: in vivo
[12] = Toxicity in CB17-SCID mouse xenografted with human COLO 320 cells assessed as drug tolerance at 15 mg/kg, po administered twice daily via gavage for 20 days; format: organism-based; conditions: in vivo, 480 h, time 20 day
SW480 = assay: Cytotoxicity against human SW480 cells assessed as reduction in cell growth at 0.01 to 10 uM incubated for 14 days by resazurin dye based assay; format: functional; conditions: dose 0.01-10 µM, time 14.0 day
[13] = In vivo inhibition of Wnt pathway in Hsd athymic nude mouse xenografted with human DLD1 cells assessed as reduction in beta-catenin level in tumor at 10 to 30 mg/kg, po administered as single dose and measured after 8 hrs; format: functional, organism-based; conditions: DLD-1, dose 10-30 mg/kg
[14] = Hepatic blood flow in monkey; format: ADME, Macaca mulatta; conditions: rhesus monkey
COLO 320 = assay: Cytotoxicity against human COLO 320 cells assessed as reduction in cell growth incubated for 14 days by resazurin dye based assay; format: functional; conditions: time 14.0 day
[15] = molecular target: Protein mono-ADP-ribosyltransferase PARP11 (Homo sapiens, UniProt Q9NR21); assay: Inhibition of N-terminal GST-tagged/C-terminal 6xHis-tagged human recombinant PARP11 (8 to 338 residues) expressed in Sf9 insect cells by chemiluminescence assay
[16] = molecular target: T1, Poly [ADP-ribose] polymerase tankyrase-2 (Homo sapiens, UniProt Q9H2K2); assay: Inhibition of TNKS2 (unknown origin) using biotinylated NAD as substrate assessed as inhibition of autoPARsylation activity incubated for 1 hr by ELISA
T1 sequence (Q9H2K2 whole entry): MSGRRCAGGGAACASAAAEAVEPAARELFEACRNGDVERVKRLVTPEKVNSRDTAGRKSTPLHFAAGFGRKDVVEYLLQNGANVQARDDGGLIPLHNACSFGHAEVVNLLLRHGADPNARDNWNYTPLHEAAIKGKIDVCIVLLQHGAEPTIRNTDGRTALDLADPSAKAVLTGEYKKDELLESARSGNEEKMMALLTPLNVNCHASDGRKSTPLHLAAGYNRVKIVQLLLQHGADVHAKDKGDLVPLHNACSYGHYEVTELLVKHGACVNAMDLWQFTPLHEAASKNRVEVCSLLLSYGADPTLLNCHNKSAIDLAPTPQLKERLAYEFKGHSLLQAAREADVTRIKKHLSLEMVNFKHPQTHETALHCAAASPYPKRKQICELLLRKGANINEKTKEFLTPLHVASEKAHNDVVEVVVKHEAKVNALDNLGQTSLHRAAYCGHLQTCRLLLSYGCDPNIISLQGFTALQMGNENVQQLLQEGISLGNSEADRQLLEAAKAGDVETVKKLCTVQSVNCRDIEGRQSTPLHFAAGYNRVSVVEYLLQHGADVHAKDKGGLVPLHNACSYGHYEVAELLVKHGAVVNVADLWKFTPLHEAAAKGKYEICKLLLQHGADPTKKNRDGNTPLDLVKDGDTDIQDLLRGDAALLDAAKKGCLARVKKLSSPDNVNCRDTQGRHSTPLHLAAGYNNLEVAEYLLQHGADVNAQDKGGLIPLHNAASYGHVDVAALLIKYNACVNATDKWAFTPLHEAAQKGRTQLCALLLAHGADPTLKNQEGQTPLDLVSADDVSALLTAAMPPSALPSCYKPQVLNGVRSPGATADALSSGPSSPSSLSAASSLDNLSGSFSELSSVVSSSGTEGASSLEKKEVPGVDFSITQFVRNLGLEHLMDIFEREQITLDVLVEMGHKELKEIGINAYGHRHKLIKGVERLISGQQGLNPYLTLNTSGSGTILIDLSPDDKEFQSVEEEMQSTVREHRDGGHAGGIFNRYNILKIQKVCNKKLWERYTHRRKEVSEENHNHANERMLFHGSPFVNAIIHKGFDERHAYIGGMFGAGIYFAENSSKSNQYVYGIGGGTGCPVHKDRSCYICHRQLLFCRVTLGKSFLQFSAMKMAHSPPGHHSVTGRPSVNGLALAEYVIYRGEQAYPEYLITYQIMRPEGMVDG

[17] = molecular target: Protein mono-ADP-ribosyltransferase PARP15 (Homo sapiens, UniProt Q460N3); assay: Inhibition of N-terminal GST-tagged human recombinant PARP15 (221 to 444 residues) expressed in Escherichia coli by chemiluminescence assay
[18] = Volume of distribution at steady state in rat; format: ADME; conditions: in vivo, read-out: Vdss
[19] = molecular target: Poly [ADP-ribose] polymerase tankyrase-1 (Homo sapiens) (UniProt O95271); assay: Inhibition of tankyrase-mediated auto-PARsylation in human DLD-1 cells assessed as increase in tankyrase accumulation incubated for 24 hrs; format: cell-based
[20] = molecular target: Sodium-dependent dopamine transporter (Homo sapiens, UniProt Q01959); assay: Inhibition of dopamine transporter (unknown origin); format: toxicity
[21] = Oral bioavailability in dog; format: ADME, organism-based, Canis lupus familiaris; conditions: in vivo
[22] = Toxicity in mouse assessed as histopathological changes in gastrointestinal tract at 50 mg/kg, po administered twice daily via gavage; format: organism-based; conditions: in vivo
[23] = Hepatic blood flow in mouse; format: ADME, organism-based

Sequence of Protein mono-ADP-ribosyltransferase PARP15 (Q460N3 whole entry, looked up, the tested form may be a part): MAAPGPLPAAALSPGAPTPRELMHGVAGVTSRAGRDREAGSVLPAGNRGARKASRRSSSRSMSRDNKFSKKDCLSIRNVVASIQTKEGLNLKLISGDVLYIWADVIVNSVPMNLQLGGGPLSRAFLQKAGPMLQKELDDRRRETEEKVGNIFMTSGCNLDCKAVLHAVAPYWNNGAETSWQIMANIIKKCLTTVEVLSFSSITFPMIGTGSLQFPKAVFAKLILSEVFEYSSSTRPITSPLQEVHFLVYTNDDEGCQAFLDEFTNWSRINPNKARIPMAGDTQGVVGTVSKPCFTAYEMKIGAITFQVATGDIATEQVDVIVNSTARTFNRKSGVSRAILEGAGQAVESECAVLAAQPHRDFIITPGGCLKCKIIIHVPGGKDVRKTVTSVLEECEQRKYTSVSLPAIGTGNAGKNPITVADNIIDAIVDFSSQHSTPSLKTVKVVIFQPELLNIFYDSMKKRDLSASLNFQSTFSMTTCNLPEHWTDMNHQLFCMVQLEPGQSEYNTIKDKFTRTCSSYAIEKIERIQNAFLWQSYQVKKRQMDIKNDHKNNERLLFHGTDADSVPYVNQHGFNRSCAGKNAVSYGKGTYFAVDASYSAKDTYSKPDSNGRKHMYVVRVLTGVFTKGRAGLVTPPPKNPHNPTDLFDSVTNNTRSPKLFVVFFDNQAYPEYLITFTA
Sequence of Protein mono-ADP-ribosyltransferase PARP8 (Q8N3A8 whole entry): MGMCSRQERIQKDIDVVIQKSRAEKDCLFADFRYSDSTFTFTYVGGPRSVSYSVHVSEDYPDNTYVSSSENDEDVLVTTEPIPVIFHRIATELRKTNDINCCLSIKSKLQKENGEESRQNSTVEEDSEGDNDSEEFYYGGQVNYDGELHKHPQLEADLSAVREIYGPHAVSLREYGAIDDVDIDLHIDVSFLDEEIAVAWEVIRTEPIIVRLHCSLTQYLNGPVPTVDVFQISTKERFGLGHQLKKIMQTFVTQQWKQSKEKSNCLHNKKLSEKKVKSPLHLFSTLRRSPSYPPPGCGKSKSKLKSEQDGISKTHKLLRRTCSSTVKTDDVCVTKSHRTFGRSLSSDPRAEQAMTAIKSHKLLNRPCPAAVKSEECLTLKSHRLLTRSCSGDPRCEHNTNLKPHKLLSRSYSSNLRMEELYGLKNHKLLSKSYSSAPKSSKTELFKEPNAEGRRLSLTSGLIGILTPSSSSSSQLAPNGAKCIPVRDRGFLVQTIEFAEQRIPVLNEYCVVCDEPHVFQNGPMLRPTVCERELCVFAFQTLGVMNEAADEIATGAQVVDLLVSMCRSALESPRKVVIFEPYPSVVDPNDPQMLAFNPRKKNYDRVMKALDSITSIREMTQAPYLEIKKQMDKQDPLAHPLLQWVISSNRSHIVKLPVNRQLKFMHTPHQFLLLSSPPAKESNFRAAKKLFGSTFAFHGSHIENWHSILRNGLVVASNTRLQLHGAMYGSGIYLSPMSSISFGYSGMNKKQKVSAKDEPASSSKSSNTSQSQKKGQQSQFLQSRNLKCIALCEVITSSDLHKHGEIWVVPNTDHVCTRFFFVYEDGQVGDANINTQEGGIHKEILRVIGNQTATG
Sequence of Poly [ADP-ribose] polymerase 2 (Q9UGN5 whole entry, the tested form may be a part): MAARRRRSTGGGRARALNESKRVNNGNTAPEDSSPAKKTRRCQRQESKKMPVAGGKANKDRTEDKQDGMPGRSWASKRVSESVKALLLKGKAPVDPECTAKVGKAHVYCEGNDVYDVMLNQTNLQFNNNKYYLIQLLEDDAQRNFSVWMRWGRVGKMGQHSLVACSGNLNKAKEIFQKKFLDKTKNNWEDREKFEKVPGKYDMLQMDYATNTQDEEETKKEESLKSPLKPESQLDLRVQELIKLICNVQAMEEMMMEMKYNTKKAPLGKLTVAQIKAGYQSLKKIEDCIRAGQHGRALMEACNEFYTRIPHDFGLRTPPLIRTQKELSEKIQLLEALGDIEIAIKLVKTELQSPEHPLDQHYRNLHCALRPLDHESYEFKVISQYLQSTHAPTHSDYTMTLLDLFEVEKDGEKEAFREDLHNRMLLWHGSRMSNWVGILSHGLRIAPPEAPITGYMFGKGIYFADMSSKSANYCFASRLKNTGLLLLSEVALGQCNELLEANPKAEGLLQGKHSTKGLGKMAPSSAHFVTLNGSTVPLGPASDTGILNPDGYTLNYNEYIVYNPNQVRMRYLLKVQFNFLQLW
Sequence of Poly [ADP-ribose] polymerase tankyrase-1 (Homo sapiens) (O95271 whole entry): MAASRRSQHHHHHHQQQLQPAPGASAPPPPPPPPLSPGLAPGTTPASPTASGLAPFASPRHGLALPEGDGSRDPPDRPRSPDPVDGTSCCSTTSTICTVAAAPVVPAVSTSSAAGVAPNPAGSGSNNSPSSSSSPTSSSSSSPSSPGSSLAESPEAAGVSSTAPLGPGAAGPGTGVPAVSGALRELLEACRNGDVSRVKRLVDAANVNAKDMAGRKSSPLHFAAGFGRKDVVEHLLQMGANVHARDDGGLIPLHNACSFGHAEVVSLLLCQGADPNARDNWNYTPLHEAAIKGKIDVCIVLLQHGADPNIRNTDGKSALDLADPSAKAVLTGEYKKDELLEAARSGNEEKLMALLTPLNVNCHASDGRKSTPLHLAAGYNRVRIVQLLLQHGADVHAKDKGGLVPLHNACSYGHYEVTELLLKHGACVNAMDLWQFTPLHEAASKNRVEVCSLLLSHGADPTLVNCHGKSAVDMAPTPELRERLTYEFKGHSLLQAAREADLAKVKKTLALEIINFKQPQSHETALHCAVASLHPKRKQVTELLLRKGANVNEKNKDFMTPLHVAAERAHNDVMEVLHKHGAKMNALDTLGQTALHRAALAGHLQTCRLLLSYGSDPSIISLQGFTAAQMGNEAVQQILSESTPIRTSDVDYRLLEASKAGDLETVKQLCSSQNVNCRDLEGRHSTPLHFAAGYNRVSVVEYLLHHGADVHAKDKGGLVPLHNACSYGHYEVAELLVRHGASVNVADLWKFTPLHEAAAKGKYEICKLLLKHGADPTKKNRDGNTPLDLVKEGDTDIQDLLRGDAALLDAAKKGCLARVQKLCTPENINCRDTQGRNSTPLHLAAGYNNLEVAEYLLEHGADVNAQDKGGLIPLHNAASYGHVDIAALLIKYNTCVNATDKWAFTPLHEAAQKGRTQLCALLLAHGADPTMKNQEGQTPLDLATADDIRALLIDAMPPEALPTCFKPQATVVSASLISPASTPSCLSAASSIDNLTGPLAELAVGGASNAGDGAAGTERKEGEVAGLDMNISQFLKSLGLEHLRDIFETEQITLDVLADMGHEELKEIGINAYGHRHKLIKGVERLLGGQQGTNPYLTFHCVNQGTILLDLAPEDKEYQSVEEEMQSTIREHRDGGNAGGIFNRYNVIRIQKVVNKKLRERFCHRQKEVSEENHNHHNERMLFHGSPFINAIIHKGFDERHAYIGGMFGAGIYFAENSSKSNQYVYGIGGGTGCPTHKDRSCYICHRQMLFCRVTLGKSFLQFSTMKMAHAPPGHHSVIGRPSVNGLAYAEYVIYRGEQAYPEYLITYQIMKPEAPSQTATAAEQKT
Sequence of Protein mono-ADP-ribosyltransferase PARP3 (Q9Y6F1 whole entry, the tested form may be a part): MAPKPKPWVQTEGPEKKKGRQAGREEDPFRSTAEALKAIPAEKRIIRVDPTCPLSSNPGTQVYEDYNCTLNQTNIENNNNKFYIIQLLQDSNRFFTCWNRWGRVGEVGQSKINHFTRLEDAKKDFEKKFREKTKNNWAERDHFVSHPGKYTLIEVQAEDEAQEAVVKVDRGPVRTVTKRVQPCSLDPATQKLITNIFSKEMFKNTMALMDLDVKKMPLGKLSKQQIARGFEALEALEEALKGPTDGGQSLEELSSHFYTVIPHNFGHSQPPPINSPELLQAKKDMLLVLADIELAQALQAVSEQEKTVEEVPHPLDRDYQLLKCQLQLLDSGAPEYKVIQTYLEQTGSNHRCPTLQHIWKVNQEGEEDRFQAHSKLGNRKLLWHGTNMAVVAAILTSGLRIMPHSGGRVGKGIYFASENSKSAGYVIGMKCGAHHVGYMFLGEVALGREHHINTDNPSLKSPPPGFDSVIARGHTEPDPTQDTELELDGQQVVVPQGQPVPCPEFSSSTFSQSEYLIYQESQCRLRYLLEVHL
Sequence of Sodium-dependent dopamine transporter (Q01959 whole entry): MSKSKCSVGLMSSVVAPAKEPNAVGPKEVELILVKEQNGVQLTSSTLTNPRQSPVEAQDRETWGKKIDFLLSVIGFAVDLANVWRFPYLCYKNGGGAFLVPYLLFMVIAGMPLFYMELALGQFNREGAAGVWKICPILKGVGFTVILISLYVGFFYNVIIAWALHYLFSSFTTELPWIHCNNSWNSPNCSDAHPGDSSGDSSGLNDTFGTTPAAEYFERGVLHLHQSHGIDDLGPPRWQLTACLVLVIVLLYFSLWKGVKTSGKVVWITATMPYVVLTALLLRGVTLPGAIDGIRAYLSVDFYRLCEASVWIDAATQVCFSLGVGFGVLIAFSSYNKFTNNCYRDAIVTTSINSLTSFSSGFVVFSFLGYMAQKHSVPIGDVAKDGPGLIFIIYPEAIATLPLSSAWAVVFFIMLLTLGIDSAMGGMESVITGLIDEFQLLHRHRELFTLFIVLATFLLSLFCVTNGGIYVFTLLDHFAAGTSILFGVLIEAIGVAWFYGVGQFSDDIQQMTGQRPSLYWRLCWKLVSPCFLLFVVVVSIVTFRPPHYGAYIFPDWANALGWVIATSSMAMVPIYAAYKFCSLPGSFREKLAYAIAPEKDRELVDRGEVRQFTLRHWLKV
Sequence of Protein mono-ADP-ribosyltransferase PARP11 (Q9NR21 whole entry, the tested form may be a part): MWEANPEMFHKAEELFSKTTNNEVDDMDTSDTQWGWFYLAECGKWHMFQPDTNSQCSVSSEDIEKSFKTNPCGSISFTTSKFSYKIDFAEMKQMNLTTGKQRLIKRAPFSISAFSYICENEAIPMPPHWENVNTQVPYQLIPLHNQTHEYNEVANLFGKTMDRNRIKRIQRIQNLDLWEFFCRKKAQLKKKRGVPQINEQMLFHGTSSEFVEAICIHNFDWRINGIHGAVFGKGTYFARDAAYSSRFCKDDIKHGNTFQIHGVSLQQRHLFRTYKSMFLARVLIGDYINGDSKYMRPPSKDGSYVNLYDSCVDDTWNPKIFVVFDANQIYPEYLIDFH

What does the source list for `Cc1ccc2c(=O)[nH]c(-c3ccc(C(C)(C)O)cc3)cn12`?
IC50 [1]: 0.11 µM; half-life [2]: 6.9 h; bioavailability [3]: 41%; IC50 [4]: 0.2 µM; Vd [5]: 2.43 L/kg; fraction unbound [6]: 0.096; Vd [7]: 2.17 L/kg; IC50 (CYP450): > 50 µM; Activity [8]: Non-Toxic; inhibition [9]: inactive; IC50 [10]: 1.3 µM; Activity (SW-620): inactive; half-life [11]: 0.593 h; Activity [12]: Non-Toxic; Activity (SW480): inactive; inhibition [13]: Active; QH [14]: 99%; Activity (COLO 320): Dose-Dependent Effect; IC50 [15]: 0.067 µM; IC50 [16]: 0.0009 µM; IC50 [17]: > 10 µM; Vd [18]: 0.91 L/kg; inhibition [19]: Active; IC50 [20]: 19 µM; bioavailability [21]: 37%; Activity [22]: Toxic; QH [23]: 50%
